The source of these data is patent publication US20130116277A1, “ALDO-KETO REDUCTASE SUBFAMILY 1C3 (AKR1C3) INHIBITORS” (priority 2007, published 2013).

In data set [1] the target is T1, AKR1C3 (Homo sapiens, UniProt P42330).
T1 sequence (P42330 1-323): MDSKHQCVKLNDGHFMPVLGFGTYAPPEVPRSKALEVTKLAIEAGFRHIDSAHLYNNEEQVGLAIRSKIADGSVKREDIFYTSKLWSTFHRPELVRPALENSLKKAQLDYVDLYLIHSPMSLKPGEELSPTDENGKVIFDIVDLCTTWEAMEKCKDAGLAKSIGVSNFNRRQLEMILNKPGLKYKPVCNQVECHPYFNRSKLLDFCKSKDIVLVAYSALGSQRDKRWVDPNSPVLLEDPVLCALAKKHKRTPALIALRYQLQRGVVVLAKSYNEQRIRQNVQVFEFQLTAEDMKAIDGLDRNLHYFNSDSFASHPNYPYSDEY
Briefly: Purified AKR1C3 enzyme assay, [14C]-A'dione to testosterone, TLC based. Further details: GST (N); made in house; host or cells: bacterial culture, IPTG induced (E. coli BL21-DE3 is named only for the crystallography preparation). The format is biochemical. On the procedure: Perkin Elmer; […] American Radiolabeled Chemicals, St. Louis, Mo.). The reaction was stopped by the addition of 400 μl ethyl acetate, vortexed, and spun for […] at 2000 rpm. The upper layer was transferred to a new tube and air dried. The pellet was resuspended in 25 μl of methanol, spotted on TLC plates and fractionated in TLC chamber with 3:1 chloroform:ethyl acetate. Once the mobile phase reached the top, the plates were dried and exposed to a phosphoimager screen overnight. […] Perkin Elmer) was incubated at 37° C. for 60 min. The reaction was stopped by the addition of 400 μl ethyl acetate, vortexed, and spun for […] at 2000 rpm. The upper layer was transferred to a new tube and air dried. The pellet was resuspended in 25 μl of methanol, spotted on TLC plates and fractionated in TLC chamber with 3:1 chloroform:ethyl acetate. Once the mobile phase reached the top, the plates were dried and exposed to a phosphoimager screen overnight.

Data set [2] in a line: Liver microsome incubation (HLM Phase I and Phase I + II), LC-MS/MS. The format is in vitro ADME, human. As to conditions: for microsomal CLint: human, human liver microsomes. On the procedure:
Stock solutions of prespective AKR1C3 inhibitors were prepared in DMSO at 5 mM and were incubated with liver microsomes (0.1 mg/mL). Incubations were conducted at 37° C. in a shaking water bath for 10 minutes (microsomes). Incubation durations were selected based on time course study (microsomes) or published literature (recombinant enzymes). Prepared samples were analyzed using LC-MS/MS.
A general note: Liver microsomes are vesicles of endoplasmic reticulum, rich in cytochrome P450 enzymes.

The target in the next data set is T2, ER-beta (Homo sapiens, UniProt Q92731).
T2 construct: expressed in transfected cells; host or cells: HEK-293
T2 sequence (Q92731 whole entry, species assumed): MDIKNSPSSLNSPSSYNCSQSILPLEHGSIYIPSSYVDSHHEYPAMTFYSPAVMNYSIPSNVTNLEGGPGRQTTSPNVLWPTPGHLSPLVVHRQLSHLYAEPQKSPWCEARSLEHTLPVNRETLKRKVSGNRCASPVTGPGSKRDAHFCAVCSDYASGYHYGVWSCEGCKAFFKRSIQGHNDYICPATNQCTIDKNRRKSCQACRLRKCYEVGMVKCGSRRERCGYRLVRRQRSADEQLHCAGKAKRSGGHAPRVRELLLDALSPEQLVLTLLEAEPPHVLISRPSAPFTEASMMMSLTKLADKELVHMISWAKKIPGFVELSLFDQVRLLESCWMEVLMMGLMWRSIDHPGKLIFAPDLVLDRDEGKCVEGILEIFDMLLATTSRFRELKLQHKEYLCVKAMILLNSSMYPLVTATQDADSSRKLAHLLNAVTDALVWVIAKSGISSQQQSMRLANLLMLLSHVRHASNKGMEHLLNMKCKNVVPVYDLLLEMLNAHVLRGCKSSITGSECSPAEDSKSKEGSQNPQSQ
Briefly: ER-beta transactivation (ERE-LUC luciferase) in HEK-293 cells.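 As to all read-outs here: HEK-293 cells transiently transfected with an ER-β expression plasmid and ERE-LUC reporter, firefly luciferase read-out normalized to co-transfected Renilla luciferase.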 The format is cell-based. As to conditions: for EC50: agonist mode, drug alone, read-out: Agonist ER-β; for IC50: antagonist mode, in combination with estradiol, read-out: Antagonist ER-β.

A further data set concerns the target T3, ER-α (Homo sapiens, UniProt P03372).
T3 sequence (P03372 311-547 limits assumed): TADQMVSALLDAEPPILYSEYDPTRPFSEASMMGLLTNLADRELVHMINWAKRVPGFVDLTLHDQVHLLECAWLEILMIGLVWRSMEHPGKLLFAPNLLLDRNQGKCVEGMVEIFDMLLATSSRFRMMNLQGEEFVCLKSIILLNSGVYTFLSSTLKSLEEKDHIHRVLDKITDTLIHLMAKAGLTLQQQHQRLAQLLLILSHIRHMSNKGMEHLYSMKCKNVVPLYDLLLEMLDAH
Briefly: ER-α ligand binding domain competitive binding with [3H]Estradiol.

In data set [3] the target is T1, AKR1C3. Briefly: cell-based.
Experimental: (§1) AKR1C3 expression was checked by Western blot to ensure that the cells over-express AKR1C3. […] Medium was changed to RPMI+1% csFBS without phenol red and maintained in this medium for 3 days to reduce basal hormone levels. […] The data was plotted in SigmaPlot (Systat Software Inc.) and the IC50 values for inhibitors were calculated.
(§2) HEK-293 cells stably transfected with AKR1C3 were plated in 24 well plates and were maintained in RPMI+1% csFBS without phenol red for 2 days to reduce the basal steroid levels.
A further data set concerns the target ER-β (Homo sapiens, UniProt Q92731). As to the kind of experiment: ER-β ligand binding domain competitive binding with [3H]Estradiol.
The next data set addresses T4, ER-alpha (Homo sapiens, UniProt P03372).
T4 construct: expressed in transfected cells; host or cells: HEK-293
T4 sequence (P03372 1-595): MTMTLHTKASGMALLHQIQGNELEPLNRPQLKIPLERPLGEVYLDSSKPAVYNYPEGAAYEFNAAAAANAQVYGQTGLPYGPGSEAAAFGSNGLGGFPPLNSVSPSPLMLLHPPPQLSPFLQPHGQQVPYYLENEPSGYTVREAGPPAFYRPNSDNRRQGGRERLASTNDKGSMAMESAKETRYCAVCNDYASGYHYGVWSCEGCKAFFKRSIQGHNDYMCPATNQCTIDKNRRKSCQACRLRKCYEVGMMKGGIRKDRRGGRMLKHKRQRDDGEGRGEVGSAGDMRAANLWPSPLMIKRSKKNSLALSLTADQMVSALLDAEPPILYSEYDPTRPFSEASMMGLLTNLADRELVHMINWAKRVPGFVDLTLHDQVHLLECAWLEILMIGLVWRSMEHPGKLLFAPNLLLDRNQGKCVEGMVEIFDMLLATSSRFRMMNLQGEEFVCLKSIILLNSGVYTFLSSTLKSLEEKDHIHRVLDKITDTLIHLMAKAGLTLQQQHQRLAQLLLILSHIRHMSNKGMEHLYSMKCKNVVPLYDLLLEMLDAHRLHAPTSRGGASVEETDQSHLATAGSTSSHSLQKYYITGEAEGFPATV
As to the kind of experiment: ER-alpha transactivation (ERE-LUC luciferase) in HEK-293 cells.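 As to all read-outs here: HEK-293 cells co-transfected with an ER-alpha expression plasmid, an ERE-driven firefly luciferase reporter and a CMV Renilla control, with the firefly signal normalized to Renilla.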 The settings on record: for EC50: agonist mode, drug alone, read-out: Agonist ER-α; for IC50: antagonist mode, in combination with estradiol, read-out: Antagonist ER-α. The format is cell-based.

The target in data set [4] is T1, AKR1C3. The settings on record: 100 nM androstenedione, 24 hrs, LC-MS/MS (FIG. 2).
Experimental: as §1, §2
Data set [5] deals with T1, AKR1C3.
Experimental: as §1, §2
Setting [6] is: 10 μM inhibitor, purified AKR1C3 TLC based enzyme assay, read-out: AKR1C3 inhibition at 10 μM.
[7] abbreviates: read-out: % inhibition from control HSD-5 (10 uM).
Where [8] appears, read: HLM Phase I + II, read-out: HLM Phase I + II CLint.
Where [9] appears, read: HLM Phase I, read-out: HLM Phase I CLint.

Each structure is given as a SMILES string. “And” between values parts separate entries of the source, which are not always exact repeats. Identical values can stand only once. Like-named read-outs stand apart in the source and are kept apart here.

ER-β, sequence (Q92731 264-498 limits assumed, species assumed): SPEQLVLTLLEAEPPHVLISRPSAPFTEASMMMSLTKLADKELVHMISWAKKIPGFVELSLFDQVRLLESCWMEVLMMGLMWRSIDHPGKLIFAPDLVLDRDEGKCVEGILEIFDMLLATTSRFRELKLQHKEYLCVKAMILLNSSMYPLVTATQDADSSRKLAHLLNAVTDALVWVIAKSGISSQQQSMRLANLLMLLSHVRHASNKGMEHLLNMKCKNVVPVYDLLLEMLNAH

Turning to `O=c1c2ccc(O)cc2c(-c2ccc(C(F)(F)F)cc2)cn1-c1ccc(O)cc1` [Compound 13, 6-hydroxy-2-(4-hydroxyphenyl)-4-(4-(trifluoromethyl)phenyl)isoquinolin-1(2H)-one], the inhibition at 10 µM at AKR1C3 [1] (setting [6]) and at AKR1C3 [1] (setting [7]) was 52% throughout. Besides, in [2] (HLM Phase I), the “HLM Phase I CLint” value is 0.8 µL/min/mg. The “HLM Phase I + II CLint” value in data set [2] (HLM Phase I + II) worked out at 19.1 µL/min/mg. Moreover, the “HLM Phase I + II T-1/2” value in data set [2] (HLM Phase I + II) was 40 min and 36.12 min. Further, the microsomal CLint in data set [2] (setting [8]) is 17 µL/min/mg; in [2] (setting [9]), below 1 µL/min/mg. The EC50 on ER-beta and at ER-alpha was above 10000 nM each time. The IC50 on ER-beta is 677 nM; on AKR1C3 [3], 451 nM; at ER-alpha it was above 10000 nM. In addition, the Ki (usually the equilibrium dissociation constant of an inhibitor or competing ligand from its target) on ER-α was above 1510 nM; at ER-β, 157 nM.
On to `NC(=O)c1ccc(-n2cc(-c3ccc(C(F)(F)F)c(F)c3)c3cc(O)ccc3c2=O)cc1` [Compound 215, 4-(4-(3-fluoro-4-(trifluoromethyl)phenyl)-6-hydroxy-1-oxoisoquinolin-2(1H)-yl)benzamide], for which the “Inhibition of AKR1C3 dependent conversion of androstenedione to testosterone” value on AKR1C3 [4] is given as “potently inhibited”.
Turning to `COc1ccc(-c2cn(-c3ccc(O)cc3)c(=O)c3ccc(O)cc23)cc1` [Compound 15b], at AKR1C3 [1] (setting [7]), the inhibition – broadly, the percentage by which the read-out fell short of the control – at 10 µM came to 47%. Further, the “HLM Phase I T-1/2” value in [2] (HLM Phase I) is on record as 28.3 min. Also, the “HLM Phase I + II T-1/2” value in [2] (HLM Phase I + II) came to 3.7 min. The figures for the microsomal CLint in data set [2] (setting [8]) and in data set [2] (setting [9]) were 188 µL/min/mg and 24.5 µL/min/mg, respectively. The EC50 on ER-beta and at ER-alpha was above 10000 nM throughout. Besides, the IC50 at ER-beta was 128 nM; on ER-alpha, above 10000 nM. In addition, the results for the Ki at ER-α and on ER-β were 2100 nM and 252 nM, respectively.
Compound `COc1ccc(C=CC(=O)O)cc1OC` [3,4,dimethoxy cinnamic acid] registered an IC50 against AKR1C3 [5] above 10000 nM.
In the case of `O=C(O)/C=C/c1cn(-c2ccc(O)cc2)c(=O)c2c(O)cc(O)cc12` [Compound 15l, (E)-3-(6,8-dihydroxy-2-(4-hydroxyphenyl)-1-oxo-1,2-dihydroisoquinolin-4-yl)acrylic acid], the Ki was above 1510 nM at ER-α and 613 nM at ER-β. At AKR1C3 [3], this compound returned an IC50 of 1710 nM.
Regarding `O=c1c2ccc(O)cc2c(-c2ccc(O)cc2)cn1-c1ccc(CO)cc1` [Compound 14, 6-hydroxy-2-(4-(hydroxymethyl)phenyl)-4-(4-hydroxyphenyl)isoquinolin-1(2H)-one], the EC50 on ER-beta and on ER-alpha was above 10000 nM each time. The IC50 on ER-beta is above 10000 nM; on AKR1C3 [3] it was 1320 nM; on ER-alpha it was above 10000 nM. Moreover, the values for the Ki at ER-α and at ER-β were above 1510 nM and above 2200 nM, respectively.
On to `O=c1c2ccc(O)cc2c(-c2ccc(C(F)(F)F)cc2)cn1-c1ccc(CBr)c(O)c1` [Compound 26, 2-(4-(bromomethyl)-3-hydroxyphenyl)-6-hydroxy-4-(4-(trifluoromethyl)phenyl)isoquinolin-1(2H)-one], for which the inhibition at 10 µM on AKR1C3 [1] (setting [6]) and at AKR1C3 [1] (setting [7]) was 50% in each case. Besides, the EC50 at ER-beta and on ER-alpha was above 10000 nM in each case. Further, the IC50 on ER-beta was above 10000 nM; on AKR1C3 [3] it was 289 nM; at ER-alpha, above 10000 nM. Further, the Ki is above 1510 nM on ER-α and above 2200 nM on ER-β.
